From PMC4013589, “LXXLL Peptide Converts Transportan 10 to a Potent Inducer of Apoptosis in Breast Cancer Cells” (International Journal of Molecular Sciences, 2014)
Entries after “also recorded” stand apart in the source; their conditions may differ. Where no end group is shown, it is not given here.

Key:
[1] = test system: MCF-7 breast cancer cells; assay: WST-1 viability assay, MCF-7 cells; format: cell-based, human; conditions: WST-1, 5 μM peptide, treated every 24 h, day 3, 1% FBS without insulin; triplicate
Protocol: (§1) Figure 1. Effects of SRC-1 bioportides on cancer and primary fibroblast cells. (A) Viability of MCF-7 cells; (B) Viability of FB188 cells. Cells were seeded in 96-well plates at a density of 3000 or 2000 cells/well, respectively, and treated after every 24 h with the indicated peptide concentrations. Viability of both cell types was monitored at day 3 via the WST-1 assay. The values shown represent the mean values of one experiment, carried out in triplicate (mean ± SD). In total, three independent experiments were performed.
(§2) Cytotoxicity of peptides was measured via the WST-1 conversion assay (Roche, Mannheim, Germany). FB188 and MCF-7 cells were seeded in 96-well plates at a density of 2000 or 3000 cells/well, respectively, and allowed to adhere overnight. Subsequently the cells were pre-incubated for two days in medium containing 1% FBS without supplementary insulin and exposed to the indicated concentrations of the respective peptide for up to 3 days. WST-1 conversion was determined by colorimetric analysis at 450 nm. Briefly, WST-1 reagent (1/10 of sample volume) was added directly to the growth medium and incubated at 37 °C for 4 h. The absorbance was determined using a microplate reader (Molecular Devices, Sunnyvale, CA, USA) at 450 nm. Untreated cells were designated a cell survival value of 100%.

[2] = test system: human primary fibroblasts (FB188 cells); assay: WST-1 viability assay, primary fibroblasts (FB188); format: cell-based
Protocol: as §1, §2

MDA-MB-231 cells = format: cell-based, human; conditions: for Effect on survival of MDA-MB-231 cells: propidium iodide viability assay, 5 μM every 24 h for 4 days, 1% FBS
Protocol: (§3) Figure 3. Inhibition of cell viability by SRC-1 bioportides and their influence on ERα-mediated gene transactivation. (A) MCF-7 cells; (B) MDA-MB-231 cells. Cells were seeded in 24-well plates at low density and were treated every 24 h for 4 days with 5 μM peptide. Cell proliferation was measured after 1, 3, and 4 days of peptide treatment via a propidium iodide viability assay. […] MCF-7 cells were cultured with 5 μM of the indicated peptides and analyzed on day 2 of treatment. The fold change is the value compared with untreated cells. The values shown represent the mean values of one representative experiment, carried out in triplicate (mean ± SD). In total, three independent experiments were performed.
(§4) Cells were plated at low density in 24-well plates in standard growth medium, as described above. Before peptide treatment, MCF-7 cell growth was impeded by growing cells in 1% FBS containing medium without addition of insulin. At the day of treatment, peptides were added to the growth medium containing 1% FBS to the indicated final concentration. The procedure was repeated every 24 h for 4 days; samples were drawn after 1, 3, and 4 days of treatment and analyzed by cell counting using the propidium iodide viability assay (Nucleocounter, ChemoMetec, Allerød, Denmark) according to manufacturer’s instructions.

MCF-7 cells [3] = format: cell-based, human; conditions: for Effect on survival of MCF-7 cells: propidium iodide viability assay, 5 μM every 24 h for 4 days, 1% FBS without insulin
Protocol: as §3, §4

[4] = test system: HeLa cervical cancer cells; assay: Toxicity to HeLa cells; format: cell-based, human; conditions: for Toxicity to HeLa cells: data not shown, concentration not given
MCF-7 cells [5] = assay: Annexin V / 7-AAD flow cytometric detection of apoptosis; format: cell-based, human; conditions: MCF-7, 5 μM peptide, 24 h, 1% FBS without insulin, flow cytometry
Protocol: Figure 4. Flow cytometric detection of apoptosis by annexin V and 7-amino-actinomycin D (7-AAD) staining. (A) Representative dot plots of 7-AAD versus annexin-V-PE. MCF-7 cells were left untreated (control) or were treated with 5 μM of peptide for 24 h in media supplemented with 1% serum. The lower left quadrant contains the vital (double negative) population; the lower right contains the apoptotic (annexin V^+/7-AAD^−) population; the upper right contains the late apoptotic/necrotic (annexin V^+/7-AAD^+) population; and the upper left contains the pre-necrotic (annexin V^−/7-AAD^+) population; (B) Average percentage of apoptotic and late apoptotic/necrotic cells counted from dot plots taken from one representative experiment, error bars indicate mean ± SD. Data are statistically significant with * p < 0.05, ** p < 0.01. In total, three independent experiments were performed.
Annexin V staining was measured using the PE-annexin-V Apoptosis Detection Kit I (BD Biosciences, San Diego, CA, USA). MCF-7 cells (3 × 10^5) were treated for 24 h with 5 μM peptide in growth medium supplemented with 1% FBS and without insulin. […] Following the addition of 0.4 mL of 1× Binding Buffer, fluorescence of annexin V and 7-AAD was detected in the FL-2 and FL-3 channels, respectively, within 1 h using a FACS Calibur flowcytometer (BD Biosciences, Sparks, MD, USA). […]

CTSD mRNA in MCF-7 cells = assay: Quantitative RT-PCR of ERα target gene CTSD, MCF-7; format: cell-based, human; conditions: MCF-7, 5 μM peptide, day 2, qRT-PCR; similar to TP10 or TP10-SRC1_1222–1245 treated cells
Protocol: as §3
(§5) For quantitative RT-PCR (qPCR) analysis, MCF-7 cells were treated as described above for the proliferation assay. On day 2, cells were lysed and total RNA was extracted using a commercial RNAqueous Kit (Ambion, Austin, TX, USA). Genomic DNA was removed with DNase I treatment (Ambion) according to the supplier’s protocol. RNA was reverse-transcribed using SuperScript III Reverse Transcriptase (Invitrogen, Carlsbad, CA, USA). Subsequently, qPCR was performed using Platinum SYBR Green (Invitrogen) according to the manufacturer’s protocol. […]

BCL2 mRNA in MCF-7 cells = assay: Quantitative RT-PCR of ERα target gene BCL2, MCF-7; format: cell-based, human; conditions: MCF-7, 5 μM peptide, day 2, qRT-PCR; similar to TP10 or TP10-SRC1_1222–1245 treated cells
Protocol: as §3, §5

pS2 mRNA in MCF-7 cells = assay: Quantitative RT-PCR of ERα target gene pS2, MCF-7; format: cell-based, human; conditions: MCF-7, 5 μM peptide, day 2, qRT-PCR relative to GAPDH, versus untreated cells
Protocol: as §3, §5

| Substance | Effect on viability of MCF-7 cells [1] | Effect on survival of MDA-MB-231 cells (MDA-MB-231 cells) | Effect on survival of MCF-7 cells (MCF-7 cells [3]) | Toxicity to HeLa cells [4] | pS2 mRNA levels (pS2 mRNA in MCF-7 cells) | other results |
| --- | --- | --- | --- | --- | --- | --- |
| NLS-RRRRRRR [R7, hepta-arginine cell-penetrating peptide with SV40 NLS, control, reference compound] | did not have any effect | – | – | – | – | Effect on viability of human primary fibroblasts ([2]; WST-1, 5 μM peptide, treated every 24 h, day 3, 1% FBS, triplicate): did not have any effect |
| NLS-RRRRRRR-PQMQQNVFQYPGAGMVPQGEANF [R7-SRC1_1222–1245, randomly chosen non-structured fragment of SRC-1 with N-terminal R7; negative control] | – | did not affect survival | did not affect survival | not toxic | – | – |
| NLS-RRRRRRR-YSQTSHKLVQLLTTAEQQ [R7-SRC1LXXLL] | – | did not affect survival | did not affect survival | not toxic | – | – |
| PKKKRKVAGYLLGKINLKALAALAKKILYSQTSHKLVQLLTTAEQQ [TP10-SRC1LXXLL] | significantly more toxic; also recorded: highly cytotoxic | – | significant cytotoxic effects | – | No down-regulation | Cells killed (MDA-MB-231 cells; MDA-MB-231, 5 μM every 24 h, day 3, propidium iodide assay): 99%; Number of viable cells (MDA-MB-231 cells; MDA-MB-231, 5 μM every 24 h, day 4, propidium iodide assay): less than 1%; Cells killed (MCF-7 cells [3]; MCF-7, 5 μM every 24 h, day 3, propidium iodide assay): 50%; Number of viable cells (MCF-7 cells [3]; MCF-7, 5 μM every 24 h, day 4, propidium iodide assay): less than 1%; Cytotoxicity to HeLa cells ([4]; 5 μM): highly cytotoxic; Annexin V and 7-AAD double-stained (late apoptotic/necrotic) cells (MCF-7 cells [5]): smaller population of cells that stained for both 7-AAD and annexin V; Annexin V (+)/7-AAD (−) stained (early apoptotic) cells (MCF-7 cells [5]; compared with untreated cells): predominant population of annexin V positive and 7-AAD negative cells; CTSD mRNA expression (CTSD mRNA in MCF-7 cells): slightly elevated; BCL2 mRNA expression (BCL2 mRNA in MCF-7 cells): slightly elevated; Concentration affecting the viability of primary fibroblasts ([2]; WST-1, day 3): ≥ 4 µM |
| TP10 [reference compound] | did not have any effect | – | – | – | No down-regulation | – |
